Measured values published in ChEMBL document CHEMBL4814018, “Rationally designed TNF-α inhibitors: Identification of promising cytotoxic agents” (Bioorg Med Chem Lett, 2021).
Activity calls are given as the source filed them. The rule behind the calls is not given here.

How the values were obtained:
SF-295 [1] = test: Growth inhibition of human SF-295 cells at 10 uM incubated for 48 hrs by sulforhodamine B assay relative to control; format: functional; settings: read-out: GI
SR [2] = test: Growth inhibition of human SR cells at 10 uM incubated for 48 hrs by sulforhodamine B assay relative to control; format: functional; settings: read-out: GI
HCT-116 [3] = test: Growth inhibition of human HCT-116 cells incubated for 48 hrs by sulforhodamine B assay; format: functional
MDA-MB-231 [4] = test: Growth inhibition of human MDA-MB-231 cells incubated for 48 hrs by sulforhodamine B assay; format: functional
UACC-257 [5] = test: Growth inhibition of human UACC-257 cells incubated for 48 hrs by sulforhodamine B assay; format: functional
SK-OV-3 [6] = test: Growth inhibition of human SK-OV-3 cells incubated for 48 hrs by sulforhodamine B assay; format: functional
[7] = Therapeutic index, ratio of LC50 for human Panel NCI-60 (60 carcinoma cell lines) to GI50 for human Panel NCI-60 (60 carcinoma cell lines); format: functional
SK-MEL-2 [8] = test: Growth inhibition of human SK-MEL-2 cells incubated for 48 hrs by sulforhodamine B assay; format: functional
NCI-H460 [9] = test: Growth inhibition of human NCI-H460 cells at 10 uM incubated for 48 hrs by sulforhodamine B assay relative to control; format: functional; settings: read-out: GI
NCI-H226 [10] = test: Growth inhibition of human NCI-H226 cells at 10 uM incubated for 48 hrs by sulforhodamine B assay relative to control; format: functional; settings: read-out: GI
U-251 [11] = test: Growth inhibition of human U-251 cells incubated for 48 hrs by sulforhodamine B assay; format: functional
U-251 [12] = test: Growth inhibition of human U-251 cells at 10 uM incubated for 48 hrs by sulforhodamine B assay relative to control; format: functional; settings: read-out: GI
HOP-92 [13] = test: Growth inhibition of human HOP-92 cells incubated for 48 hrs by sulforhodamine B assay; format: functional
MCF7 [14] = test: Growth inhibition of human MCF7 cells incubated for 48 hrs by sulforhodamine B assay; format: functional
OVCAR-5 [15] = test: Growth inhibition of human OVCAR-5 cells at 10 uM incubated for 48 hrs by sulforhodamine B assay relative to control; format: functional; settings: read-out: GI
[16] = test system: Panel NCI-60 (60 carcinoma cell lines); test: Growth inhibition of human Panel NCI-60 (60 carcinoma cell lines) incubated for 48 hrs by sulforhodamine B assay; format: functional
BV-2 [17] = test: Antiinflammatory activity against mouse BV2 cells assessed as reduction in LPS-induced IL6 production at 1 uM by enzyme immunoassay; format: functional, cell-based
K562 [18] = test: Growth inhibition of human K562 cells incubated for 48 hrs by sulforhodamine B assay; format: functional
TK-10 [19] = test: Growth inhibition of human TK-10 cells at 10 uM incubated for 48 hrs by sulforhodamine B assay relative to control; format: functional; settings: read-out: GI
HOP-92 [20] = test: Growth inhibition of human HOP-92 cells at 10 uM incubated for 48 hrs by sulforhodamine B assay relative to control; format: functional; settings: read-out: GI
TK-10 [21] = test: Growth inhibition of human TK-10 cells incubated for 48 hrs by sulforhodamine B assay; format: functional
RPMI-8226 [22] = test: Growth inhibition of human RPMI8226 cells at 10 uM incubated for 48 hrs by sulforhodamine B assay relative to control; format: functional; settings: read-out: GI
HOP-62 [23] = test: Growth inhibition of human HOP-62 cells at 10 uM incubated for 48 hrs by sulforhodamine B assay relative to control; format: functional; settings: read-out: GI
OVCAR-5 [24] = test: Growth inhibition of human OVCAR-5 cells incubated for 48 hrs by sulforhodamine B assay; format: functional
BV-2 [25] = test: Antiinflammatory activity against mouse BV2 cells assessed as decrease in LPS-induced NO production at 1 to 5 uM pretreated with compound followed by LPS stimulation incubated for 4 to 48 hrs by enzyme immunoassay; format: functional, cell-based; settings: dose 1-5 µM, time 4-48 hrs
T47D [26] = test: Growth inhibition of human T47D cells at 10 uM incubated for 48 hrs by sulforhodamine B assay relative to control; format: functional; settings: read-out: GI
IGROV-1 [27] = test: Growth inhibition of human IGROV-1 cells incubated for 48 hrs by sulforhodamine B assay; format: functional
UO-31 [28] = test: Growth inhibition of human UO-31 cells at 10 uM incubated for 48 hrs by sulforhodamine B assay relative to control; format: functional; settings: read-out: GI
HCT-116 [29] = test: Growth inhibition of human HCT-116 cells at 10 uM incubated for 48 hrs by sulforhodamine B assay relative to control; format: functional; settings: read-out: GI
IGROV-1 [30] = test: Growth inhibition of human IGROV-1 cells at 10 uM incubated for 48 hrs by sulforhodamine B assay relative to control; format: functional; settings: read-out: GI
SW-620 [31] = test: Growth inhibition of human SW-620 cells incubated for 48 hrs by sulforhodamine B assay; format: functional
NCI-H460 [32] = test: Growth inhibition of human NCI-H460 cells incubated for 48 hrs by sulforhodamine B assay; format: functional
K562 [33] = test: Growth inhibition of human K562 cells at 10 uM incubated for 48 hrs by sulforhodamine B assay relative to control; format: functional; settings: read-out: GI
RPMI-8226 [34] = test: Growth inhibition of human RPMI-8226 cells incubated for 48 hrs by sulforhodamine B assay; format: functional; settings: dose 10 µM
SK-MEL-2 [35] = test: Growth inhibition of human SK-MEL-2 cells at 10 uM incubated for 48 hrs by sulforhodamine B assay relative to control; format: functional; settings: read-out: GI
BV-2 [36] = test: Cytotoxicity against mouse BV2 cells incubated for 48 hrs by MTT assay; format: cell-based; settings: BV-2, 48 h
UACC-62 [37] = test: Growth inhibition of human UACC-62 cells at 10 uM incubated for 48 hrs by sulforhodamine B assay relative to control; format: functional; settings: read-out: GI
A498 [38] = test: Growth inhibition of human A498 cells at 10 uM incubated for 48 hrs by sulforhodamine B assay relative to control; format: functional; settings: read-out: GI
A498 [39] = test: Growth inhibition of human A498 cells incubated for 48 hrs by sulforhodamine B assay; format: functional
T47D [40] = test: Growth inhibition of human T47D cells incubated for 48 hrs by sulforhodamine B assay; format: functional
MDA-MB-468 [41] = test: Growth inhibition of human MDA-MB-468 cells incubated for 48 hrs by sulforhodamine B assay; format: functional
BV-2 [42] = test: Antiinflammatory activity against mouse BV2 cells assessed as inhibition of LPS-induced TNFalpha production at 1 uM by enzyme immunoassay; format: functional; set-up: scale not given: the % may be the effect or the level left
OVCAR-4 [43] = test: Growth inhibition of human OVCAR-4 cells incubated for 48 hrs by sulforhodamine B assay; format: functional
NCI-H226 [44] = test: Growth inhibition of human NCI-H226 cells incubated for 48 hrs by sulforhodamine B assay; format: functional
UO-31 [45] = test: Growth inhibition of human UO-31 cells incubated for 48 hrs by sulforhodamine B assay; format: functional
CAKI-1 [46] = test: Growth inhibition of human CAKI-1 cells incubated for 48 hrs by sulforhodamine B assay; format: functional
OVCAR-3 [47] = test: Growth inhibition of human OVCAR-3 cells incubated for 48 hrs by sulforhodamine B assay; format: functional
MDA-MB-468 [48] = test: Growth inhibition of human MDA-MB-468 cells at 10 uM incubated for 48 hrs by sulforhodamine B assay relative to control; format: functional; settings: read-out: GI
OVCAR-4 [49] = test: Growth inhibition of human OVCAR-4 cells at 10 uM incubated for 48 hrs by sulforhodamine B assay relative to control; format: functional; settings: read-out: GI
CAKI-1 [50] = test: Growth inhibition of human CAKI-1 cells at 10 uM incubated for 48 hrs by sulforhodamine B assay relative to control; format: functional; settings: read-out: GI
HOP-62 [51] = test: Growth inhibition of human HOP-62 cells incubated for 48 hrs by sulforhodamine B assay; format: functional
SR [52] = test: Growth inhibition of human SR cells incubated for 48 hrs by sulforhodamine B assay; format: functional
MDA-MB-231 [53] = test: Growth inhibition of human MDA-MB-231 cells at 10 uM incubated for 48 hrs by sulforhodamine B assay relative to control; format: functional; settings: read-out: GI
UACC-257 [54] = test: Growth inhibition of human UACC-257 cells at 10 uM incubated for 48 hrs by sulforhodamine B assay relative to control; format: functional; settings: read-out: GI
SW-620 [55] = test: Growth inhibition of human SW-620 cells at 10 uM incubated for 48 hrs by sulforhodamine B assay relative to control; format: functional; settings: read-out: GI
OVCAR-3 [56] = test: Growth inhibition of human OVCAR-3 cells at 10 uM incubated for 48 hrs by sulforhodamine B assay relative to control; format: functional; settings: read-out: GI
UACC-62 [57] = test: Growth inhibition of human UACC-62 cells incubated for 48 hrs by sulforhodamine B assay; format: functional
MCF7 [58] = test: Growth inhibition of human MCF7 cells at 10 uM incubated for 48 hrs by sulforhodamine B assay relative to control; format: functional; settings: read-out: GI
SK-OV-3 [59] = test: Growth inhibition of human SK-OV-3 cells at 10 uM incubated for 48 hrs by sulforhodamine B assay relative to control; format: functional; settings: read-out: GI
SF-295 [60] = test: Growth inhibition of human SF-295 cells incubated for 48 hrs by sulforhodamine B assay; format: functional
[61] = read-out: LC50 (the source's name)

Q: Which results are given for O=C1COCCN1c1ccc(NCc2cn(Cc3ccc(Cl)cc3)c3ccccc23)cc1?
A: inhibition of growth at 10 µM (SF-295 [1]): 85%; inhibition of growth at 10 µM (SR [2]): 87%; GI50 (HCT-116 [3]): 240 nM; GI50 (MDA-MB-231 [4]): 4500 nM; GI50 (UACC-257 [5]): 270 nM; GI50 (SK-OV-3 [6]): 2290 nM; TI [7]: 34; GI50 (SK-MEL-2 [8]): 2180 nM; inhibition of growth at 10 µM (NCI-H460 [9]): 93%; inhibition of growth at 10 µM (NCI-H226 [10]): 93%; GI50 (U-251 [11]): 1200 nM; inhibition of growth at 10 µM (U-251 [12]): 89%; GI50 (HOP-92 [13]): 1600 nM; GI50 (MCF7 [14]): 290 nM; inhibition of growth at 10 µM (OVCAR-5 [15]): 100%; GI50 [16]: 2090 nM; TGI [16]: 25100 nM; CC50 [16, 61]: 70800 nM; Activity (BV-2 [17]): Active; GI50 (K562 [18]): 1800 nM; inhibition of growth at 10 µM (TK-10 [19]): 100%; inhibition of growth at 10 µM (HOP-92 [20]): 90%; GI50 (TK-10 [21]): 140 nM; CC50 (TK-10 [21]; [61]): > 100000 nM; inhibition of growth at 10 µM (RPMI-8226 [22]): 95%; inhibition of growth at 10 µM (HOP-62 [23]): 83%; GI50 (OVCAR-5 [24]): 180 nM; CC50 (OVCAR-5 [24]; [61]): 9600 nM; Activity (BV-2 [25]): Active; inhibition of growth at 10 µM (T47D [26]): 95%; GI50 (IGROV-1 [27]): 250 nM; inhibition of growth at 10 µM (UO-31 [28]): 92%; inhibition of growth at 10 µM (HCT-116 [29]): 96%; inhibition of growth at 10 µM (IGROV-1 [30]): 100%; GI50 (SW-620 [31]): 2200 nM; GI50 (NCI-H460 [32]): 260 nM; inhibition of growth at 10 µM (K562 [33]): 94%; GI50 (RPMI-8226 [34]): 2100 nM; inhibition of growth at 10 µM (SK-MEL-2 [35]): 89%; IC50 (BV-2 [36]): > 10000 nM; inhibition of growth at 10 µM (UACC-62 [37]): 100%; inhibition of growth at 10 µM (A498 [38]): 100%; GI50 (A498 [39]): 30 nM; CC50 (A498 [39]; [61]): 400 nM; GI50 (T47D [40]): 260 nM; GI50 (MDA-MB-468 [41]): 100 nM; CC50 (MDA-MB-468 [41]; [61]): 800 nM; Activity (BV-2 [42]): 75%; GI50 (OVCAR-4 [43]): 480 nM; GI50 (NCI-H226 [44]): 150 nM; CC50 (NCI-H226 [44]; [61]): 3600 nM; GI50 (UO-31 [45]): 2080 nM; GI50 (CAKI-1 [46]): 50 nM; CC50 (CAKI-1 [46]; [61]): > 100000 nM; GI50 (OVCAR-3 [47]): 1200 nM; inhibition of growth at 10 µM (MDA-MB-468 [48]): 100%; inhibition of growth at 10 µM (OVCAR-4 [49]): 94%; inhibition of growth at 10 µM (CAKI-1 [50]): 100%; GI50 (HOP-62 [51]): 1000 nM; GI50 (SR [52]): 3000 nM; inhibition of growth at 10 µM (MDA-MB-231 [53]): 77%; inhibition of growth at 10 µM (UACC-257 [54]): 100%; inhibition of growth at 10 µM (SW-620 [55]): 73%; inhibition of growth at 10 µM (OVCAR-3 [56]): 96%; GI50 (UACC-62 [57]): 390 nM; inhibition of growth at 10 µM (MCF7 [58]): 96%; inhibition of growth at 10 µM (SK-OV-3 [59]): 91%; GI50 (SF-295 [60]): 1800 nM
